# How the values were obtained:
# [1] = tested on: 3α-hydroxysteroid oxidase; assay: Enzymatic characteristics: substrate specificity and Km value; type: biochemical, Pseudomonas testosterone ATCC 11996
# [2] = tested on: 3α-hydroxysteroid oxidase; assay: Relative activities of the 3α-hydroxysteroid oxidase for various substrates; type: biochemical, Pseudomonas testosterone ATCC 11996; settings: substrate of the oxidase; R.A. of cholic acid being 100
# Experimental: Thereafter, the microorganism was cultured at the same temperature for 10-24 hours. After completion of the culture, the resultant culture broth was centrifuged to separate and collect cells. The thus-collected cells were suspended at 5° C. in 5 volumes of a 0.02 M phosphate buffer of pH 7.0, which contained 1% (w/v) of "Triton X-100" (BDH Ltd.), to a total volume of 1 l. By a cell disrupter, DINO-MILL (trade mark; manufactured by Willy A. Bachofen Maschinenfabrik AG), the cells were disrupted to release the enzyme. […] The extract was then added with 430 g of ammonium sulfate to a final concentration of 65% saturation, the precipitated fraction was collected by centrifugation. The precipitate was dissolved in a 0.lM phosphate buffer (pH 7) containing 0.1% of "Triton X-100" and the resultant mixture was dialyzed for 24 hours against the same buffer in order to remove any remaining ammonium sulfate.
# An azide was added as a preservative to the enzyme solution.
Structure (SMILES),Substrate specificity (oxidase acts on substrate or not) [1],R.A. (relative activity) [2] [%],Km ([1]; against ethiocholan-3α-ol-17-one) [µM]
C[C@@]12CCC[C@H]1[C@@H]1CC[C@@H]3C[C@H](O)CC[C@]3(C)[C@H]1CC2 [5β-androstan-3α-ol],acts on,–,–
C[C@H](CCC(=O)NCC(=O)O)[C@H]1CC[C@H]2[C@@H]3[C@H](O)C[C@@H]4C[C@H](O)CC[C@]4(C)[C@H]3C[C@H](O)[C@]12C [Glycocholic acid],–,95,–
C[C@H](CCC(=O)O)[C@H]1CC[C@H]2[C@@H]3[C@H](O)C[C@@H]4C[C@H](O)CC[C@]4(C)[C@H]3C[C@H](O)[C@]12C [Cholic acid],–,100,–
"C[C@]12CCC(=O)C[C@H]1CC[C@@H]1[C@@H]2CC[C@]2(C)C(=O)CC[C@@H]12 [5β-Androstan-3,17-dione]",–,18,–
C[C@]12CC[C@H]3[C@@H](CCC4=CC(=O)CC[C@@]43C)[C@@H]1CC[C@@H]2O [Testosterone],–,0,–
C[C@H](CCC(=O)O)[C@H]1CC[C@H]2[C@@H]3CC[C@@H]4C[C@H](O)CC[C@]4(C)[C@H]3C[C@H](O)[C@]12C [Deoxycholic acid],–,86,–
CC(C)CCC[C@@H](C)[C@H]1CC[C@H]2[C@@H]3CC=C4C[C@@H](O)CC[C@]4(C)[C@H]3CC[C@]12C [Cholesterol],–,0,–
C[C@H](CCC(=O)O)[C@H]1CC[C@H]2[C@@H]3CC[C@@H]4C[C@H](O)CC[C@]4(C)[C@H]3CC[C@]12C [Cithocholic acid],–,57,–
"C[C@]12CCC(=O)C[C@@H]1CC[C@@H]1[C@@H]2CC[C@]2(C)C(=O)CC[C@@H]12 [5α-Androstan-3,17-dione]",–,0,–
C[C@]12CC[C@@H](O)C[C@H]1CC[C@@H]1[C@@H]2CC[C@]2(C)C(=O)CC[C@@H]12 [Ethiocholan-3α-ol-17-one],–,140,800
C[C@H](CCC(=O)O)[C@H]1CC[C@H]2[C@@H]3[C@H](O)C[C@@H]4C[C@H](O)CC[C@]4(C)[C@H]3CC[C@]12C [Chenodeoxycholic acid],–,89,–
C[C@]12CC[C@@H](O)C[C@@H]1CC[C@@H]1[C@@H]2CC[C@]2(C)C(=O)CC[C@@H]12 [5α-Androstan-3α-ol-17-one],–,0,–
